Laboratory results from patent US7927634B2, “Compositions and methods for treating angiogenesis-related diseases, wounds and cosmetic use of components of Angelica sinensis, and methods of preparation thereof” (Sunny Biodiscovery, Inc., priority 2004, dated 2011).

Legend:
[1] = test system: full thickness excisional wounds in genetically diabetic mice; assay: Wound closure in genetically diabetic mice; assay type: in vivo, mouse; settings: for Becaplermin (% closure): median, becaplermin 5 ug/wound in CMC gel, n = 6; for Stimulation by becaplermin relative to Control (control = 1): ratio of median closure, becaplermin 5 ug/wound
Excerpt: We have chosen to use the genetically diabetic mice (13 week old female BKS Cg-m +/+ Lepr(db), stock # 642, Jackson Labs) because it is an optimal model reflecting the impaired wound healing in a segment of the population particularly vulnerable to chronic wounds—the diabetic patients. This genetically diabetic mouse model is well established as documented by over 50 publications (for example see Tsuboi et al., 1992). Many companies have also used it as a standard pre-clinical model, including Johnson & Johnson, which included it in the pre-clinical data package submitted to FDA as part of their IND application for becaplermin. […]
Twelve mice were divided in 2 groups and 8 mm (diameter) full thickness excisional wounds were performed under anesthesia on each side of the animal with a punch biopsy tool and covered by sterile gauze (occlusive dressings were not used as they considerably delay wound healing, according to the experience of the Principal Inventor and to the published reports (Lasa et al., 1993). The number of animals per group was based on the previous publications with this model; Jacobi et al., 2002). In Group 1 (the experimental treatment group), one wound on each animal was treated by 50 ul of “high” concentration of SBD.4 (10 mg per wound) and the other one by 50 ul of “low” concentration of SBD.4 (2 mg per wound). In Group 2 (negative control), both wounds were treated by PBS (phosphate buffered saline). Treatments were applied on the first day and every second day thereafter. Wound surface were measured every second day. Wound closure was determined by the following formula: percent closure={(area on day 0−open area)/area on day 0}×100. Wounds were considered closed if moist granulation tissue was no longer apparent, and the wound appeared covered with new epithelium.
Twelve mice were divided in two groups and two wounds per mouse were effectuated as in Example 5. In order to exclude the possibility of mouse-to-mouse variability in wound healing, in this experiment every mouse was treated by the test sample on one wound and by PBS (negative control) on another wound. Thus, one group of 6 mice was treated with 50 ul of SBD.4 (2 mg/wound) on one wound, and by 50 ul of PBS on the other wound, while the second group of 6 mice was treated with becaplermin (positive control; 5 ug in 50 ul CMC—carboxymethylcellulose—gel) on one and PBS on another wound. The concentration of becaplermin was based on the dose used by Johnson & Johnson in their pre-clinical studies (2) and on published studies with PDGF-B, in the db/db model (Greenhalgh et al., 1990).
Treatments were applied on the first day and every second day thereafter. Wound surface were measured every second day. Wound closure for each wound was determined by the formula: percent closure={(area on day 0−open area)/area on day 0}×100. Wounds were considered closed if moist granulation tissue was no longer apparent, and the wound appeared covered with new epithelium. The dynamics of wound closure for the 2 groups is plotted on FIG. 6 (means) and Table II (medians).

[2] = test system: full thickness wounds in human skin graft on SCID mice; assay: Wound closure in human skin/SCID mouse chimera model; assay type: in vivo, human skin grafted on SCID mice; settings: closed/total animals, ointment every two days, SBD.4 (HPLC-purified) in 2% CMC, becaplermin as Regranex
Excerpt: Human skin graft in severe combined immunodeficient (SCID) mice is a powerful model for evaluating the effect of wound-healing drug-candidates on full-thickness wounds (Juhasz et al., 1993). The wound model in human skin/SCID chimera features normal migration of neutrophils and macrophages to the wound bed, as well as normal expression of growth factors associated with wound-healing, and therefore provides a good approximation of human dermal wound-healing process (Matsumoto et al., 1997). The disadvantage of this model is that it is delicate to handle and time-consuming. The donor skin must be immediately placed on ice and taken to the lab, where a 10-hour grafting procedure follows. We used surgical waste skin obtained under informed consent from a patient undergoing abdominoplasty.
Skin was defatted (if it is not well defatted, the remaining adipose tissue easily undergoes necrosis, which interferes with graft taking. But on the other side, removing the underlying fat tissue too slowly or too zealously can also damage the skin and compromise the graft), and grafted (2.5×2.5 cm) on 15 SCID mice (Charles River Labs), using 10-12 stitches per graft. Here, the challenge is to suture the thick human skin with the much thinner rodent tissue.
After 6 weeks, when the graft anastomosed with the murine skin 8 mm (diameter) full thickness wounds were excised in the human skin. Mice received treatment (ointment every two days) of either becaplermin (Regranex, positive control), 2% carboxymethylcellulose (CMC, negative control) or SBD.4 in 2% CMC on the day of wounding and every second day thereafter. Initial wound closure (defined by the coverage of the base of the wound with bridging granular tissue and new epithelium) was assessed every 3 days.

bovine endothelial cells = assay: Tridimensional tube formation assay, in vitro; assay type: cell-based; settings: bFGF positive control, 15 ng/ml or 10 ng/ml; 2-5 weeks; FIG. 3C
Description: FIG. 3. Tridimensional tube formation assay, in vitro. A: Capillary endothelial cells form a monolayer in the absence of a remodeling stimulus. B: SBD.4 (5 μg/ml, purified by HPLC) induces remodeling of the monolayer that culminates in a tridimensional network of capillary structures. […]
In this model, capillary-like structures are induced by plating bovine endothelial cells (about 8000 cells per well) in a 96 well tissue culture-treated plate (Costar) in DMEM supplemented with 5% calf serum (Hyclone, Logan, Utah), with or without an endothelial cell stimulatory growth factor. […] Cells grown without such factor form a monolayer (FIG. 3A).

For “Becaplermin: becaplermin (Regranex, Johnson & Johnson), positive control for wound healing”, which “wound closure versus PBS” value ([1]; Example 6, becaplermin 5 ug in 50 ul CMC gel per wound, FIG. 6 means, one-way ANOVA) is on record?
Its value is “not meaningfully different from the control”.

What about the “Becaplermin (% closure)” value ([1]; Example 6, day 1) of the same substance?
Its value is 0.0%.

And the “Becaplermin (% closure)” value ([1]; Example 6, day 3)?
Its value is 1.7%.

What about the “Becaplermin (% closure)” value ([1]; Example 6, day 5) of the same substance?
The value was 11.9%.

And the “Becaplermin (% closure)” value ([1]; Example 6, day 7)?
Its value is 41.2%.

What about the “Becaplermin (% closure)” value ([1]; Example 6, day 9) of the same substance?
The value was 65.8%.

What about the “Becaplermin (% closure)” value ([1]; Example 6, day 11) of the same substance?
The value was 86.7%.

And the “Stimulation by becaplermin relative to Control (control = 1)” value ([1]; day 3)?
Its value is 1.1.

What about the “Stimulation by becaplermin relative to Control (control = 1)” value ([1]; day 5) of the same substance?
Its value is 0.4.

And the “Stimulation by becaplermin relative to Control (control = 1)” value ([1]; day 7)?
The value was 1.1.

And the “Stimulation by becaplermin relative to Control (control = 1)” value ([1]; day 9)?
Its value is 1.3.

What about the “Stimulation by becaplermin relative to Control (control = 1)” value ([1]; day 11) of the same substance?
Its value is 1.3.

And the “# animals showing initial wound closure” value ([2]; Day 3)?
Its value is 0/5.

What about the “# animals showing initial wound closure” value ([2]; Day 6) of the same substance?
Its value is 1/5.

What about the “# animals showing initial wound closure” value ([2]; Day 9) of the same substance?
The value was 2/4.

And the “# animals showing initial wound closure” value ([2]; Day 12)?
Its value is 4/4.

And the “# animals showing initial wound closure” value ([2]; Day 16)?
The value was 4/4.

How did the “induction of capillary-like structures (remodeling response)” value (bovine endothelial cells) turn out when “bFGF: basic fibroblast growth factor, potent angiogenesis stimulator used as positive control” was run?
Its value is “form capillary-like structures”.
